Reference: patent publication US11185511B2, “Antifungal topical composition and methods of treatment” (priority 2013, dated 2021)
Entries after “also recorded” stand apart in the source; their conditions may differ. Read-outs that look alike come from different tables or passages of the source.

How the values were obtained:
[1] = test system: Saccharomyces cerevisiae NOD 24; assay: Chequerboard titration test (MIC, FICI) against Saccharomyces cerevisiae NOD 24; assay type: cell-based; conditions: for Fold reduction in MIC of drug when combined with PHMB: S cerevisiae NOD 24, FIG. 2; for MIC when combined with PHMB: S cerevisiae NOD 24, MIC of the antifungal in combination with PHMB; for FICI / Type of interaction: S cerevisiae NOD 24, antifungal combined with PHMB; for MIC: Saccharomyces cerevisiae, NOD24
Description: (§1) In vitro susceptibility of a clinical isolate of Candida albicans, Saccharomyces cerevisiae NOD 24 and S cerevisiae EBY 100 to the combination of the antifungal agent and PHMB was assessed using chequerboard assay. Interaction between the drugs and PHMB, formation of nanoparticles and cellular uptake was also assessed.
(§2) Yeast inoculum was prepared by picking five colonies from 24 hrs grown culture in SGA and mixing in RPMI 1640 with MOPS. The optical density of the mixture was adjusted spectrophotometrically to 1 which is equivalent to 3×10^7 Colony Forming Units of yeast/mi. This suspension was further diluted in RPMI 1640 with MOPS to give final inoculum size of 0.5×10^4 CFU/ml.
(§3) Chequer board titration test was carried out in sterile 96-well plates as per CLSI recommended standard procedure to test the antifungal effect of drugs alone and in combination with PHMB. RPMI 1640 medium buffered with MOPS was used as test medium. Dilutions of drug was prepared the test medium if the stock was made in DMSO and in case of stocks made in water further dilutions of drug was in water itself. Tested concentrations were: nystatin 0.000039 mg/ml to 0.02 mg/ml, amphotericin B 0.032 mg/ml to 0.0000625 mg/ml, berberine 0.01 mg/ml to 0.00002 mg/ml, ketoconazole 0.032 mg/ml to 0.0000625 mg/ml and terbinafine 0.16 mg/ml to 0.00031 mg/ml. Growth control and sterility control was present in all plates. All the plates were prepared in triplicates.
(§4) The plates were sealed with paraffin foil to prevent evaporation and kept at 37° C. for C albicans and 30° C. for S cererevisiae. MIC was recorded visually, aided with Powerwave 340 universal microplate spectrophotometer (Biotek) after 24 hours for C albicans and S cerevisiae NOD 24. […] MIC was defined as the lowest concentration at which there is no visible growth. FICI was used to analyse the drug interactions in vitro and was calculated using the equation given below: […]

[2] = test system: Candida albicans, Saccharomyces cerevisiae NOD 24 and S cerevisiae EBY 100; conditions: chequerboard assay, organism not specified
Description: as §1, §3, §4
Wilcoxon signed rank test was used to statistically analyse changes in MICs of antifungals when combined with PHMB. P value less than 0.05 was considered significant. Statistical analysis was done using SPPSS version 2.0 software.

[3] = test system: Saccharomyces cerevisiae EBY 100; assay: Chequerboard titration test (MIC, FICI) against Saccharomyces cerevisiae EBY 100; assay type: cell-based; conditions: for Fold reduction in MIC of drug when combined with PHMB: S cerevisiae EBY100, FIG. 1; for MIC when combined with PHMB: S cerevisiae EBY 100, MIC of the antifungal in combination with PHMB; for FICI / Type of interaction: S cerevisiae EBY 100, antifungal combined with PHMB; for MIC: Saccharomyces cerevisiae
Description: as §1, §2, §3, §4

[4] = Particle size by dynamic light scattering (DLS); assay type: physicochemical; conditions: for Average size of particles (DLS): combined with PHMB in the ratio 1:3, PBS
Description: Dynamic light scattering (DLS) was used to estimate size of complexes formed. It is based on the principle that by measuring scattered light from particles in motion their size can be determined. […] Particle size was determined using Zetasizer S (Malvern instruments, UK).

[5] = test system: Candida albicans; assay: Chequerboard titration test (MIC, FICI) against clinical isolate of Candida albicans; assay type: cell-based; conditions: for Fold reduction in MIC of drug when combined with PHMB: FIG. 3; for MIC when combined with PHMB: MIC of the antifungal in combination with PHMB; for FICI / Type of interaction: antifungal combined with PHMB
Description: as §1, §2, §3, §4

[6] = S cerevisiae NOD 24, PHMB concentration when combined with the labelled drug
[7] = S cerevisiae NOD 24, RPMI 1640 with MOPS, 30° C., 24 hours
[8] = S cerevisiae EBY 100, PHMB concentration when combined with the labelled drug
[9] = S cerevisiae EBY 100, RPMI 1640 with MOPS, 30° C., 48 hours
[10] = combined with PHMB in the ratio 1:3
[11] = PHMB concentration when combined with the labelled drug
[12] = RPMI 1640 with MOPS, 37° C., 24 hours
[13] = S cerevisiae NOD 24, PHMB concentration when combined with the labelled drug, read-out: MIC of PHMB with antifungals
[14] = S cerevisiae NOD 24, RPMI 1640 with MOPS, 30° C., 24 hours, read-out: MIC of antifungals alone
[15] = EBY100, S cerevisiae EBY 100, RPMI 1640 with MOPS, 30° C., 48 hours, read-out: MIC of antifungals alone
[16] = PHMB concentration when combined with the labelled drug, read-out: MIC of PHMB with antifungals
[17] = RPMI 1640 with MOPS, 37° C., 24 hours, read-out: MIC of antifungals alone

Structure (SMILES) | Fold reduction in MIC of drug when combined with PHMB [1] [fold] | MIC when combined with PHMB ([1]; 30° C., 24 hours) [µg/mL] | MIC of PHMB with antifungals [1, 6] [µg/mL] | MIC of antifungals alone [1, 7] [µg/mL] | FICI [1] | Type of interaction [1] | Interaction with PHMB (synergy), in words [2] | Fold reduction in MIC of drug when combined with PHMB [3] [fold] | MIC when combined with PHMB ([3]; 30° C., 48 hours) [µg/mL] | MIC of PHMB with antifungals [3, 8] [µg/mL] | FICI [3] | Type of interaction [3] | Nanoparticles with PHMB observed or not (DLS) [4, 10] | Fold reduction in MIC of drug when combined with PHMB [5] [fold] | MIC when combined with PHMB ([5]; 37° C., 24 hours) [µg/mL] | FICI [5] | Type of interaction [5] | MIC [1, 13] [µg/mL] | MIC [1, 14] [µg/mL] | MIC [5, 16] [µg/mL] | other results
C[C@@H]1[C@H](O)[C@@H](C)/C=C/C=C/C=C/C=C/C=C/C=C/C=C/[C@H](O[C@@H]2O[C@H](C)[C@@H](O)[C@H](N)[C@@H]2O)C[C@@H]2O[C@](O)(C[C@@H](O)C[C@@H](O)[C@H](O)CC[C@@H](O)C[C@@H](O)CC(=O)O[C@H]1C)C[C@H](O)[C@H]2C(=O)O [Amphotericin B] | 16 | 0.25 | 0.5 | 4 | 0.56 | No interaction (>0.5 but ≤4 is ‘no interaction’) | Synergistic effect | 4 | 4 | 0.5 | 0.5 | Synergistic (FICI≤0.5 is ‘synergistic effect’) | Nanoparticles were not detected | 2 | 0.5 | 0.53 | No interaction (>0.5 but ≤4 is ‘no interaction’) |  |  |  | MIC of antifungals alone [3, 9]: 16 µg/mL; Type of interaction ([3]; listed as amphotericin B): synergy; MIC of PHMB with antifungals [5, 11]: 0.031 µg/mL; MIC of antifungals alone [5, 12]: 1 µg/mL
COc1ccc2cc3[n+](cc2c1OC)CCc1cc2c(cc1-3)OCO2 [Berberine] | 16 | 0.56 |  |  | 0.56 | No interaction (>0.5 but ≤4 is ‘no interaction’) |  | 2 | 25 |  | 0.75 | No interaction (>0.5 but ≤4 is ‘no interaction’) | Nanoparticles were observed | 2 | 31.25 | 0.53 | No interaction (>0.5 but ≤4 is ‘no interaction’) | 0.5 | 50 | 0.031 | MIC ([3]; EBY100, S cerevisiae EBY 100, PHMB concentration when combined with the labelled drug, read-out: MIC of PHMB with antifungals): 0.5 µg/mL; MIC [3, 15]: 50 µg/mL; Share of particles around 22.2±1.5 nm ([4]; combined with PHMB 1:3): 64.5%; Average size of particles (DLS) [4]: 22.22±1.591 nm; Average size of particles (DLS) ([4]; listed as berberine): around 22.2±1.5 nm
CC(=O)N1CCN(c2ccc(OCC3COC(Cn4ccnc4)(c4ccc(Cl)cc4Cl)O3)cc2)CC1 (stereo not shown) [Ketoconazole] | 4 | 1 |  |  | 0.5 | Synergistic (FICI≤0.5 is ‘synergistic effect’) | Strong synergism; also recorded: Synergistic effect | 4 | 0.31 |  | 0.263 | Synergistic (FICI≤0.5 is ‘synergistic effect’) | Nanoparticles were observed | 4 | 1 | 0.281 | Synergistic (FICI≤0.5 is ‘synergistic effect’) | 0.5 | 16 | 0.062 | MIC ([3]; EBY100, 48 h, read-out: MIC of antifungals alone): 1.25 µg/mL; Polydispersity index ([4]; combined with PHMB 1:3): > 1; Share of particles of size less than 10 nm ([4]; combined with PHMB 1:3): less than 10%; Peak 1 Average size (DLS) [4, 10]: 1.15±0.017; Peak 2 Average size (DLS) [4, 10]: 5.88±0.71; Peak 3 Average size (DLS) [4, 10]: 498.9±65.2; MIC [5, 17]: 4 µg/mL
C[C@@H]1[C@H](O)[C@@H](C)/C=C/C=C/CC/C=C/C=C/C=C/C=C/C(O[C@H]2O[C@H](C)[C@@H](O)[C@H](N)[C@@H]2O)CC2O[C@](O)(CC(O)C(O)CCC(O)CC(O)CC(O)CC(=O)O[C@H]1C)CC(O)C2C(=O)O (stereo partly shown) [Nystatin] | 4 | 0.625 | 0.5 | 2.5 | 0.75 | No interaction (>0.5 but ≤4 is ‘no interaction’) |  | 2 | 2.5 | 0.062 | 0.53 | No interaction (>0.5 but ≤4 is ‘no interaction’) | Nanoparticles were not detected | 2 | 2.5 | 1 | No interaction (>0.5 but ≤4 is ‘no interaction’) |  |  |  | MIC of antifungals alone [3, 9]: 5 µg/mL; MIC of PHMB with antifungals [5, 11]: 0.5 µg/mL; MIC of antifungals alone [5, 12]: 5 µg/mL
CN(C/C=C/C#CC(C)(C)C)Cc1cccc2ccccc12 [Terbinafine] | 16 | 2.5 |  |  | 0.312 | Synergistic (FICI≤0.5 is ‘synergistic effect’) | Strong synergism; also recorded: Synergistic effect | 8 | 2.5 |  | 0.14 | Synergistic (FICI≤0.5 is ‘synergistic effect’) |  | 4 | 1 | 0.5 | Synergistic (FICI≤0.5 is ‘synergistic effect’) | 0.062 | 4 | 0.5 | MIC [3, 15]: 20 µg/mL; MIC [5, 17]: 4 µg/mL
